In PubChem BioAssay AID248 (DTP/NCI, 2004):
Inconclusive results and toxic doses are left out. Rule as the data show it: active = T/C of 150% or more; inactive = T/C below 125%.

Tested on: L1210 leukemia ip in BDF1 mice, survival T/C
Test: NCI In Vivo Anticancer Drug Screen. Data for tumor model L1210 Leukemia (intraperitoneal) in B6D2F1 (BDF1) mice
Conditions: endpoint: mean survival time, higher = longer survival
In short: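 Each compound was tested against a transplantable tumor grown in mice. The endpoint was survival, with treated animals benchmarked against vehicle controls as a simple ratio.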

[1] = dose: 100.0 mg/kg/injection, schedule: Q01DX009 (ip), vehicle: Klucel (hydroxypropylcellulose) (HPC)
[2] = dose: 100.0 mg/kg/injection, schedule: Q04DX003 (ip), vehicle: Klucel (hydroxypropylcellulose) (HPC)
[3] = dose: 200.0 mg/kg/injection, schedule: Q01DX009 (ip), vehicle: Klucel (hydroxypropylcellulose) (HPC)
[4] = dose: 200.0 mg/kg/injection, schedule: Q04DX003 (ip), vehicle: Klucel (hydroxypropylcellulose) (HPC)
[5] = dose: 400.0 mg/kg/injection, schedule: Q01DX009 (ip), vehicle: Klucel (hydroxypropylcellulose) (HPC)
[6] = dose: 400.0 mg/kg/injection, schedule: Q04DX003 (ip), vehicle: Klucel (hydroxypropylcellulose) (HPC)
[7] = dose: 100.0 mg/kg/injection, schedule: Q01DX009 (ip), vehicle: saline with Tween-80
[8] = dose: 400.0 mg/kg/injection, schedule: Q01DX009 (ip), vehicle: saline with Tween-80
[9] = dose: 100.0 mg/kg/injection, schedule: Q01DX001 (ip), vehicle: saline
[10] = dose: 200.0 mg/kg/injection, schedule: Q01DX001 (ip), vehicle: saline
[11] = dose: 100.0 mg/kg/injection, schedule: Q01DX009 (ip), vehicle: saline
[12] = dose: 200.0 mg/kg/injection, schedule: Q01DX009 (ip), vehicle: saline
[13] = dose: 400.0 mg/kg/injection, schedule: Q01DX009 (ip), vehicle: saline

Measured: T/C

Clc1nc(Cl)c(CBr)c(Cl)n1
inactive: dose: 1.0 mg/kg/injection, schedule: Q01DX Z (ip), vehicle: carboxymethylcellulose (CMC) 96 % of control | dose: 2.0 mg/kg/injection, schedule: Q01DX Z (ip), vehicle: carboxymethylcellulose (CMC) 96 % of control | dose: 4.0 mg/kg/injection, schedule: Q01DX Z (ip), vehicle: carboxymethylcellulose (CMC) 96 % of control | dose: 8.0 mg/kg/injection, schedule: Q01DX Z (ip), vehicle: carboxymethylcellulose (CMC) 94 % of control | dose: 10.0 mg/kg/injection, schedule: Q01DX001 (ip), vehicle: carboxymethylcellulose (CMC) 96 % of control | dose: 16.0 mg/kg/injection, schedule: Q01DX009 (ip), vehicle: carboxymethylcellulose (CMC) 103 % of control | dose: 20.0 mg/kg/injection, schedule: Q01DX001 (ip), vehicle: carboxymethylcellulose (CMC) 93 % of control | dose: 40.0 mg/kg/injection, schedule: Q01DX001 (ip), vehicle: carboxymethylcellulose (CMC) 93 % of control

CC(=O)C1CCC=C2C1CC1CC2C1(C)C (configuration not stated)
inactive: [1] 106 % of control | [2] 92 % of control | [3] 100 % of control | [4] 87 % of control | [5] 101 % of control | [6] 90 % of control

O=c1c(N=Nc2ccc(Br)cc2)c(O)n(-c2ccccc2)c(=S)n1-c1ccccc1
inactive: dose: 100.0 mg/kg/injection, schedule: Q01DX001 (ip), vehicle: Klucel (hydroxypropylcellulose) (HPC) 105 % of control | dose: 200.0 mg/kg/injection, schedule: Q01DX001 (ip), vehicle: Klucel (hydroxypropylcellulose) (HPC) 102 % of control | dose: 400.0 mg/kg/injection, schedule: Q01DX001 (ip), vehicle: Klucel (hydroxypropylcellulose) (HPC) 102 % of control

CC(C)NC(=O)C1CC2c3cccc4c3c(cn4CN(C)C)CC2N(C)C1 (configuration not stated)
inactive: dose: 2.5 mg/kg/injection, schedule: Q04DX003 (ip), vehicle: saline 101 % of control | dose: 5.0 mg/kg/injection, schedule: Q04DX003 (ip), vehicle: saline 101 % of control | dose: 10.0 mg/kg/injection, schedule: Q04DX003 (ip), vehicle: saline 100 % of control | dose: 12.5 mg/kg/injection, schedule: Q04DX002 (ip), vehicle: saline 113 % of control | dose: 20.0 mg/kg/injection, schedule: Q04DX003 (ip), vehicle: saline 101 % of control | dose: 25.0 mg/kg/injection, schedule: Q04DX002 (ip), vehicle: saline 108 % of control

Cc1ccc(COC(=O)Nc2ccc(C)c(NC(=O)OCc3ccc(C)cc3)c2)cc1
inactive: [7] 90 % of control | [8] 90 % of control

CCCCCCCCCCCCCCCCCBr
inactive: dose: 50.0 mg/kg/injection, schedule: Q01DX001 (ip), vehicle: carboxymethylcellulose (CMC) 110 % of control | dose: 100.0 mg/kg/injection, schedule: Q01DX001 (ip), vehicle: carboxymethylcellulose (CMC) 95 % of control | dose: 200.0 mg/kg/injection, schedule: Q01DX001 (ip), vehicle: carboxymethylcellulose (CMC) 93 % of control | dose: 400.0 mg/kg/injection, schedule: Q01DX001 (ip), vehicle: carboxymethylcellulose (CMC) 95 % of control

O=C(O)CC(Br)CBr (configuration not stated)
inactive: [9] 94 % of control | [10] 103 % of control

CCN(CC)C(=O)c1ccccc1C(=O)O
inactive: [1] 94 % of control | [3] 92 % of control | [5] 92 % of control

NC(N)=N/N=C(/c1ccccc1)c1ccc(F)cc1
inactive: dose: 6.25 mg/kg/injection, schedule: Q01DX009 (ip), vehicle: carboxymethylcellulose (CMC) 95 % of control | dose: 12.5 mg/kg/injection, schedule: Q01DX009 (ip), vehicle: carboxymethylcellulose (CMC) 97 % of control | dose: 15.0 mg/kg/injection, schedule: Q01DX Z (ip), vehicle: saline 95 % of control | dose: 15.0 mg/kg/injection, schedule: Q01DX Z (oral), vehicle: saline 107 % of control | dose: 20.0 mg/kg/injection, schedule: Q01DX001 (ip), vehicle: other 107 % of control | dose: 20.0 mg/kg/injection, schedule: Q01DX009 (ip), vehicle: carboxymethylcellulose (CMC) 94 % of control | dose: 20.0 mg/kg/injection, schedule: Q01DX009 (ip), vehicle: other 103 % of control | dose: 25.0 mg/kg/injection, schedule: Q01DX009 (ip), vehicle: carboxymethylcellulose (CMC) 103 % of control | dose: 30.0 mg/kg/injection, schedule: Q01DX Z (ip), vehicle: saline 108 % of control | dose: 30.0 mg/kg/injection, schedule: Q01DX Z (oral), vehicle: saline 107 % of control | dose: 40.0 mg/kg/injection, schedule: Q01DX001 (ip), vehicle: other 110 % of control | dose: 40.0 mg/kg/injection, schedule: Q01DX009 (ip), vehicle: carboxymethylcellulose (CMC) 94 % of control | dose: 40.0 mg/kg/injection, schedule: Q01DX009 (ip), vehicle: other 90 % of control | dose: 50.0 mg/kg/injection, schedule: Q01DX009 (ip), vehicle: carboxymethylcellulose (CMC) 115 % of control | dose: 80.0 mg/kg/injection, schedule: Q01DX009 (ip), vehicle: carboxymethylcellulose (CMC) 118 % of control

CCN1C(=O)CC(O)C1=O (configuration not stated)
inactive: [11] 101 % of control | [12] 100 % of control | [13] 97 % of control

Nc1c(Br)cc(F)cc1[N+](=O)[O-]
inactive: [2] 97 % of control | [4] 96 % of control | [6] 96 % of control

CC(C)(CC(=O)O)c1ccccc1
inactive: [9] 96 % of control | [11] 104 % of control | dose: 100.0 mg/kg/injection, schedule: Q04DX003 (ip), vehicle: saline 100 % of control | [10] 106 % of control | [12] 101 % of control | dose: 200.0 mg/kg/injection, schedule: Q04DX003 (ip), vehicle: saline 104 % of control | dose: 400.0 mg/kg/injection, schedule: Q01DX001 (ip), vehicle: saline 96 % of control | [13] 96 % of control | dose: 400.0 mg/kg/injection, schedule: Q04DX003 (ip), vehicle: saline 91 % of control

Nc1ccc(C(=O)CC(=O)c2cccc([N+](=O)[O-])c2)cc1
inactive: dose: 100.0 mg/kg/injection, schedule: Q04DX003 (ip), vehicle: carboxymethylcellulose (CMC) 97 % of control | dose: 200.0 mg/kg/injection, schedule: Q04DX003 (ip), vehicle: carboxymethylcellulose (CMC) 93 % of control | dose: 400.0 mg/kg/injection, schedule: Q04DX003 (ip), vehicle: carboxymethylcellulose (CMC) 90 % of control

CCC(C)(c1ccc(O)cc1)c1ccc(O)cc1
inactive: dose: 100.0 mg/kg/injection, schedule: Q04DX002 (ip), vehicle: saline 103 % of control | dose: 200.0 mg/kg/injection, schedule: Q04DX002 (ip), vehicle: saline 97 % of control | dose: 400.0 mg/kg/injection, schedule: Q04DX002 (ip), vehicle: saline 103 % of control

Cn1nnc2nnc(-c3ccccc3)n21
inactive: [7] 100 % of control | dose: 100.0 mg/kg/injection, schedule: Q04DX003 (ip), vehicle: saline with Tween-80 95 % of control | dose: 200.0 mg/kg/injection, schedule: Q01DX009 (ip), vehicle: saline with Tween-80 94 % of control | dose: 200.0 mg/kg/injection, schedule: Q04DX003 (ip), vehicle: saline with Tween-80 106 % of control | [8] 108 % of control | dose: 400.0 mg/kg/injection, schedule: Q04DX003 (ip), vehicle: saline with Tween-80 98 % of control

C=C(Br)COCC
inactive: dose: 25.0 mg/kg/injection, schedule: Q01DX009 (ip), vehicle: acetone 97 % of control
